PubChem BioAssay AID1053152 (Broad Institute, 2014)

Test system: HepG2 TRIB1 mRNA expression, RT-qPCR, 6 h
Assay: gene expression changes with sterol depletion – cell-based, HepG2, RT-PCR, cherry-pick, mechanism study for Trib1 inducer project, late-stage follow-up (AID 1053152)
Details: active compounds read high

## CN1C(=O)c2cc(NC(=O)c3ccc(C(F)(F)F)cc3)ccc2OC[C@@H]2O[C@H](CC(=O)NC3Cc4ccccc4C3)CC[C@@H]21
  fold induction: 2.5
